Legend:
BRSK2 = molecular target: T1, BRSK2 (Homo sapiens, UniProt Q8IWQ3); test: KINOMEscan; format: binding; conditions: read-out: %Ctrl @ 10000nM
T1 construct: purchased DiscoverX KINOMEscan

FGFR3(G697C) = molecular target: T2, FGFR3(G697C) (Homo sapiens, UniProt P22607, G697C); test: KINOMEscan; format: binding; conditions: read-out: %Ctrl @ 10000nM
T2 construct: purchased DiscoverX KINOMEscan

[1] = PZ-2891 levels in plasma, liver and brain tissue; format: in vivo, mouse; conditions: 225 ppm PZ-2891 in diet, 4 weeks
Experimental: Plasma (20 μl) was added to 100 μl acetonitrile containing 0.6 μM warfarin to a final concentration of 0.5 μM. The samples were incubated on ice for 30 min. Samples were spun at 3500×g for 10 min to pellet debris, and the supernatant was transferred to a glass vial. […] Tissue was homogenized in 2 ml of 80% methanol containing 0.1 μM warfarin, and incubated at −80 °C for 4 h. Samples were spun at 3500×g for 10 min to pellet debris, supernatant was transferred to a glass tube and dried down using a Savant SPD1010 Speed-Vac (Thermo Scientific) overnight. Samples were resuspended in 400 μl of 80% acetonitrile to a final concentration of 0.5 μM and transferred to a glass vial.
Samples (5 μl) were injected onto an XSelect® HSS C18, 2.5 μm, 3.0 × 150 mm column (Waters) using a flow rate of 0.25 ml/min. Solvent A was 0.1% formic acid in water, and Solvent B was acetonitrile + 0.1% formic acid. The HPLC program was the following: starting solvent mixture of 50% B, 0–0.5 min isocratic with 50% B; 0.5–1.5 min linear gradient to 95% B; 1.5–20 min isocratic with 95% B; 20–21 min linear gradient to 50% B; 21–25 min isocratic with 50% B. The QTrap 4500 was operated in the positive mode, and the ion source parameters were: ion spray voltage, 5500 V; curtain gas, 30 psi; temperature, 450 °C; collision gas, medium; ion source gas 1, 30 psi; and ion source gas 2, 40 psi. […]
Supplementary Fig. 11. […]. […]

Protein binding = conditions: mouse
FLT3(K663Q) = molecular target: T3, FLT3(K663Q) (Homo sapiens, UniProt P36888, K663Q); test: KINOMEscan; format: binding; conditions: read-out: %Ctrl @ 10000nM
T3 construct: purchased DiscoverX KINOMEscan

p38-alpha = molecular target: T4, p38-alpha (Homo sapiens, UniProt Q16539); test: KINOMEscan; format: binding; conditions: read-out: %Ctrl @ 10000nM
T4 construct: purchased DiscoverX KINOMEscan
T4 sequence (Q16539 whole entry): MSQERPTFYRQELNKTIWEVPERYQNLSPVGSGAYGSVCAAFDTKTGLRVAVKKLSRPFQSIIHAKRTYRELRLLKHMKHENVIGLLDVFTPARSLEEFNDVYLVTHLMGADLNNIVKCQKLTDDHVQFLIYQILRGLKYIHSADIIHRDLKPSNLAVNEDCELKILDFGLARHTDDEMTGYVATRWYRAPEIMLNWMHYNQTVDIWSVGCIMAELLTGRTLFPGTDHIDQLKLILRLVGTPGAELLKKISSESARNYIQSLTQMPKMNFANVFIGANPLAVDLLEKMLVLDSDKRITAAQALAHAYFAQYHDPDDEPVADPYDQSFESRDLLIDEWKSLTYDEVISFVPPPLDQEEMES

FGFR3 = molecular target: T5, FGFR3 (Homo sapiens, UniProt P22607); test: KINOMEscan; format: binding; conditions: read-out: %Ctrl @ 10000nM
T5 construct: purchased DiscoverX KINOMEscan
T5 sequence (P22607 23-806): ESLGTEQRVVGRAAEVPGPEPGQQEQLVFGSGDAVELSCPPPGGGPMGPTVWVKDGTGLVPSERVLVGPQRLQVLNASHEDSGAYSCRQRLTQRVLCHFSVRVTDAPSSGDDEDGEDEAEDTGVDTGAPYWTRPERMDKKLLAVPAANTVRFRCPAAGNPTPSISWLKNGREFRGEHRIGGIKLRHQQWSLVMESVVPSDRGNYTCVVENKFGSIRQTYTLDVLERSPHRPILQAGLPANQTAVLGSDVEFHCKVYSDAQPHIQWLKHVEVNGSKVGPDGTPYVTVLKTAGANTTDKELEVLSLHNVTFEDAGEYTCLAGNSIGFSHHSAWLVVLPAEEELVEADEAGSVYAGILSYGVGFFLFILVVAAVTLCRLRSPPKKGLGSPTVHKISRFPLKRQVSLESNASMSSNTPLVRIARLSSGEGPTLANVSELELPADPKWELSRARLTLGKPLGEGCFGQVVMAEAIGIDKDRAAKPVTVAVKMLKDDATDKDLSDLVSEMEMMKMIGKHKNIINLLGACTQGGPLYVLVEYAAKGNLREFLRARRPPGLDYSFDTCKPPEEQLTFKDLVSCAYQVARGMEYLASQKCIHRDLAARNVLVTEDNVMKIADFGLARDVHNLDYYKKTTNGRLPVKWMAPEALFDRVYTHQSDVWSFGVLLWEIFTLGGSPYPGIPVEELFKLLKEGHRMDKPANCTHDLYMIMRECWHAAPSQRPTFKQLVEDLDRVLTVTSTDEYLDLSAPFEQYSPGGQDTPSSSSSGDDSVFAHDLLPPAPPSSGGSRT

FLT3(ITD) = format: binding, human
GSK3A = molecular target: T6, GSK3A (Homo sapiens, UniProt P49840); test: KINOMEscan; format: binding; conditions: read-out: %Ctrl @ 10000nM
T6 construct: purchased DiscoverX KINOMEscan

RET(M918T) = molecular target: T7, RET(M918T) (Homo sapiens, UniProt P07949, M918T); test: KINOMEscan; format: binding; conditions: read-out: %Ctrl @ 10000nM
T7 construct: purchased DiscoverX KINOMEscan

TNIK = molecular target: T8, TNIK (Homo sapiens, UniProt Q9UKE5); test: KINOMEscan; format: binding; conditions: read-out: %Ctrl @ 10000nM
T8 construct: purchased DiscoverX KINOMEscan

MARK1 = molecular target: T9, MARK1 (Homo sapiens, UniProt Q9P0L2); test: KINOMEscan; format: binding; conditions: read-out: %Ctrl @ 10000nM
T9 construct: purchased DiscoverX KINOMEscan

NEK4 = molecular target: T10, NEK4 (Homo sapiens, UniProt P51957); test: KINOMEscan; format: binding; conditions: read-out: %Ctrl @ 10000nM
T10 construct: purchased DiscoverX KINOMEscan

MYO3A = molecular target: T11, MYO3A (Homo sapiens, UniProt Q8NEV4); test: KINOMEscan; format: binding; conditions: read-out: %Ctrl @ 10000nM
T11 construct: purchased DiscoverX KINOMEscan

[2] = molecular target: T12, EGFR(L747-S752del, P753S) (Homo sapiens, UniProt P00533, DEL747-752/P753S); test: KINOMEscan; format: binding; conditions: read-out: %Ctrl @ 10000nM
T12 construct: purchased DiscoverX KINOMEscan

CSNK1G3 = molecular target: T13, CSNK1G3 (Homo sapiens, UniProt Q9Y6M4); test: KINOMEscan; format: binding; conditions: read-out: %Ctrl @ 10000nM
T13 construct: purchased DiscoverX KINOMEscan

ACVR1B = molecular target: T14, ACVR1B (Homo sapiens, UniProt P36896); test: KINOMEscan; format: binding; conditions: read-out: %Ctrl @ 10000nM
T14 construct: purchased DiscoverX KINOMEscan
T14 sequence (P36896 24-505): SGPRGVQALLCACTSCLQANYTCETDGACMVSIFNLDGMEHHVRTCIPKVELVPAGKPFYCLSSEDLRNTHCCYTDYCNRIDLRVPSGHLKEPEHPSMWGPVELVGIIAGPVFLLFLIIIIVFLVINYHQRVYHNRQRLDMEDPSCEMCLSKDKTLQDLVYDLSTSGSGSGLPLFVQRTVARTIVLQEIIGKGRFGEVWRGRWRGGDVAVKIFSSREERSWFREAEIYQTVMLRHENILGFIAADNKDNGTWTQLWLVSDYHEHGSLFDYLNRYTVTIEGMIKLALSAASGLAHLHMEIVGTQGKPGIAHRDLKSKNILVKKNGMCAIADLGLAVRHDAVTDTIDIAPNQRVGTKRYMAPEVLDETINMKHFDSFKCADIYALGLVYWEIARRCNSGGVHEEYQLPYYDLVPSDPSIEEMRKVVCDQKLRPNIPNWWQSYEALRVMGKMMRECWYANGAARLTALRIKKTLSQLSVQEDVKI

Plasma stability = format: in vitro ADME; conditions: rat, read-out: Plasma Stability T1/2 (converted)
TYRO3 = molecular target: T15, TYRO3 (Homo sapiens, UniProt Q06418); test: KINOMEscan; format: binding; conditions: read-out: %Ctrl @ 10000nM
T15 construct: DNA label for qPCR (T7 phage fusion or DNA tag); purchased DiscoverX scanMAX; host or cells: E. coli BL21-derived (T7 phage) or HEK-293
T15 sequence (Q06418 41-890): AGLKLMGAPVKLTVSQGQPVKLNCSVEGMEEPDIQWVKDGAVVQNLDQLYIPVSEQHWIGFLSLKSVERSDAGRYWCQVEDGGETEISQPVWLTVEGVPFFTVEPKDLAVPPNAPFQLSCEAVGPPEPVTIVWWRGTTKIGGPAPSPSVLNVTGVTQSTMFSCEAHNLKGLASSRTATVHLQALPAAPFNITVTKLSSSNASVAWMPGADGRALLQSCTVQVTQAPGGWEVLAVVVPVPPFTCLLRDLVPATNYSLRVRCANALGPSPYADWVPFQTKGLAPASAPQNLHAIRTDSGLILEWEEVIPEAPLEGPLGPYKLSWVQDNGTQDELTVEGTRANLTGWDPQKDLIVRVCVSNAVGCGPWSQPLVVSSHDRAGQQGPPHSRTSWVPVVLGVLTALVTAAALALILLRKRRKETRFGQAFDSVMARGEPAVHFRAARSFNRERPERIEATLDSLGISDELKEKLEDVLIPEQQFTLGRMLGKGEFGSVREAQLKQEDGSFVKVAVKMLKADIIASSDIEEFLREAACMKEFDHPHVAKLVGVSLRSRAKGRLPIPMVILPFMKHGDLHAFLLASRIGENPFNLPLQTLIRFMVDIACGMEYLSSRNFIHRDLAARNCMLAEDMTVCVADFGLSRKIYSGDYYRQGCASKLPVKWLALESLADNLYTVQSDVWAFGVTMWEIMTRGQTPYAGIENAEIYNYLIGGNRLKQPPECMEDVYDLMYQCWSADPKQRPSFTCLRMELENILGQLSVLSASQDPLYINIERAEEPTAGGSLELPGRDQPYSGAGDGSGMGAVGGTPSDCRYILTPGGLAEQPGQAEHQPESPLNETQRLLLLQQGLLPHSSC

PAK7 = molecular target: T16, PAK7 (Homo sapiens, UniProt Q9P286); test: KINOMEscan; format: binding; conditions: read-out: %Ctrl @ 10000nM
T16 construct: purchased DiscoverX KINOMEscan

CAMK2A = molecular target: T17, CAMK2A (Homo sapiens, UniProt Q9UQM7); test: KINOMEscan; format: binding; conditions: read-out: %Ctrl @ 10000nM
T17 construct: purchased DiscoverX KINOMEscan

AKT3 = molecular target: T18, AKT3 (Homo sapiens, UniProt Q9Y243); test: KINOMEscan; format: binding; conditions: read-out: %Ctrl @ 10000nM
T18 construct: purchased DiscoverX KINOMEscan

[3] = molecular target: T19, JAK1(JH1domain-catalytic) (Homo sapiens, UniProt P23458); test: KINOMEscan; format: binding; conditions: read-out: %Ctrl @ 10000nM
T19 construct: JAK1(JH1domain-catalytic); purchased DiscoverX KINOMEscan

PKAC-alpha = molecular target: T20, PKAC-alpha (Homo sapiens, UniProt P17612); test: KINOMEscan; format: binding; conditions: read-out: %Ctrl @ 10000nM
T20 construct: purchased DiscoverX KINOMEscan

VPS34 = molecular target: T21, VPS34 (Homo sapiens, UniProt Q8NEB9); test: KINOMEscan; format: binding; conditions: read-out: %Ctrl @ 10000nM
T21 construct: DNA label for qPCR (T7 phage fusion or DNA tag); purchased DiscoverX scanMAX; host or cells: E. coli BL21-derived (T7 phage) or HEK-293
T21 sequence (Q8NEB9 whole entry, the tested form may be a part): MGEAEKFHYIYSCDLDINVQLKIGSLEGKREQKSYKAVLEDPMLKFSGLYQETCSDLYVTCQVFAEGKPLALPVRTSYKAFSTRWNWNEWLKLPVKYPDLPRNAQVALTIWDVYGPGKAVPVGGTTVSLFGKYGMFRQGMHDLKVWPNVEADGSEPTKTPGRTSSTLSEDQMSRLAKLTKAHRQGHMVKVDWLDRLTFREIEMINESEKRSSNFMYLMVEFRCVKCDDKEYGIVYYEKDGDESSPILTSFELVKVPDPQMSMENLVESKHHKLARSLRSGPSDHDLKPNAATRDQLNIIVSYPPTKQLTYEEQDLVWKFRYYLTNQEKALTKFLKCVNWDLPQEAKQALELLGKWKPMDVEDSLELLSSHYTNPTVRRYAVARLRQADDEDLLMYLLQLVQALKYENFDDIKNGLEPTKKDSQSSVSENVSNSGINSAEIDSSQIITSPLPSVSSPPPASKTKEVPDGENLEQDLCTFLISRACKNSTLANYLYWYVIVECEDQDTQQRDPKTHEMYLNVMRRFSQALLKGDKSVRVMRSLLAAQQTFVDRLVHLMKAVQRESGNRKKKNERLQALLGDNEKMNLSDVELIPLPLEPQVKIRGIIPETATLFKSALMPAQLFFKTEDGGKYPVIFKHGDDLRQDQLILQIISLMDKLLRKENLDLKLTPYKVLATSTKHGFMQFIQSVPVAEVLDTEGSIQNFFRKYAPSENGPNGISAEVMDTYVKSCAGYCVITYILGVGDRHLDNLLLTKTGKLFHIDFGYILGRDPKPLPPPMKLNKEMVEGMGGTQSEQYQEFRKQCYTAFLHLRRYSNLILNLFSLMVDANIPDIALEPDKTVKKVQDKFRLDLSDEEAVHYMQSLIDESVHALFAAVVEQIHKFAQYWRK

DDR2 = molecular target: T22, DDR2 (Homo sapiens, UniProt Q16832); test: KINOMEscan; format: binding; conditions: read-out: %Ctrl @ 10000nM
T22 construct: purchased DiscoverX KINOMEscan

PIK3CA(E542K) = molecular target: T23, PIK3CA(E542K) (Homo sapiens, UniProt P42336, E542K); test: KINOMEscan; format: binding; conditions: read-out: %Ctrl @ 10000nM
T23 construct: purchased DiscoverX KINOMEscan

RIPK4 = molecular target: T24, RIPK4 (Homo sapiens, UniProt P57078); test: KINOMEscan; format: binding; conditions: read-out: %Ctrl @ 10000nM
T24 construct: purchased DiscoverX KINOMEscan

PIK3CA(I800L) = molecular target: T25, PIK3CA(I800L) (Homo sapiens, UniProt P42336, I800L); test: KINOMEscan; format: binding; conditions: read-out: %Ctrl @ 10000nM
T25 construct: purchased DiscoverX KINOMEscan

TSSK3 = molecular target: T26, TSSK3 (Homo sapiens, UniProt Q96PN8); test: KINOMEscan; format: binding; conditions: read-out: %Ctrl @ 10000nM
T26 construct: DNA label for qPCR (T7 phage fusion or DNA tag); purchased DiscoverX scanMAX; host or cells: E. coli BL21-derived (T7 phage) or HEK-293

IKK-alpha = molecular target: T27, IKK-alpha (Homo sapiens, UniProt O15111); test: KINOMEscan; format: binding; conditions: read-out: %Ctrl @ 10000nM
T27 construct: purchased DiscoverX KINOMEscan

PRKD2 = molecular target: T28, PRKD2 (Homo sapiens, UniProt Q9BZL6); test: KINOMEscan; format: binding; conditions: read-out: %Ctrl @ 10000nM
T28 construct: purchased DiscoverX KINOMEscan
T28 sequence (Q9BZL6 whole entry): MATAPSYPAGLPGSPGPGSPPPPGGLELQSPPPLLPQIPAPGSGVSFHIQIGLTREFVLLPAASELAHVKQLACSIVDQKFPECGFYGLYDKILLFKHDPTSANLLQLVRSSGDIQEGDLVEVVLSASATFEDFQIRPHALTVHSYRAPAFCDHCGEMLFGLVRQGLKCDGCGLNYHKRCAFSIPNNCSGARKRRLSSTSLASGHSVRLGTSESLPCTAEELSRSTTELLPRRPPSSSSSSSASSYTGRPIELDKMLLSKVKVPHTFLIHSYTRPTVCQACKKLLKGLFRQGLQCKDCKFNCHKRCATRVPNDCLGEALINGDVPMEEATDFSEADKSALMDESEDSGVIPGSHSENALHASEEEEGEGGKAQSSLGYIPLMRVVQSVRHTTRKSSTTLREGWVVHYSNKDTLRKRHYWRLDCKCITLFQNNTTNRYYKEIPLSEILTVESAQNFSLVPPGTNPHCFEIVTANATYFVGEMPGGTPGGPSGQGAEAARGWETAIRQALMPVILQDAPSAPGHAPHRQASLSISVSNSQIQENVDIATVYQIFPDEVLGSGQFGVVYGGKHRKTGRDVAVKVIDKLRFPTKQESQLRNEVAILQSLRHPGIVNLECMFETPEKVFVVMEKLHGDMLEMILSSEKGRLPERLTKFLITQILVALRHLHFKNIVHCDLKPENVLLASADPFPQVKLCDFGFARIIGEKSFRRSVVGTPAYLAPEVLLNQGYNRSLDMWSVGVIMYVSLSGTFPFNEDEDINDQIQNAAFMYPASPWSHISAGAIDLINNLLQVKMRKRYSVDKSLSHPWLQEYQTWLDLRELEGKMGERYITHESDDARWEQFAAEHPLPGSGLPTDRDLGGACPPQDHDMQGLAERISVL

T1 sequence (Q8IWQ3 whole entry): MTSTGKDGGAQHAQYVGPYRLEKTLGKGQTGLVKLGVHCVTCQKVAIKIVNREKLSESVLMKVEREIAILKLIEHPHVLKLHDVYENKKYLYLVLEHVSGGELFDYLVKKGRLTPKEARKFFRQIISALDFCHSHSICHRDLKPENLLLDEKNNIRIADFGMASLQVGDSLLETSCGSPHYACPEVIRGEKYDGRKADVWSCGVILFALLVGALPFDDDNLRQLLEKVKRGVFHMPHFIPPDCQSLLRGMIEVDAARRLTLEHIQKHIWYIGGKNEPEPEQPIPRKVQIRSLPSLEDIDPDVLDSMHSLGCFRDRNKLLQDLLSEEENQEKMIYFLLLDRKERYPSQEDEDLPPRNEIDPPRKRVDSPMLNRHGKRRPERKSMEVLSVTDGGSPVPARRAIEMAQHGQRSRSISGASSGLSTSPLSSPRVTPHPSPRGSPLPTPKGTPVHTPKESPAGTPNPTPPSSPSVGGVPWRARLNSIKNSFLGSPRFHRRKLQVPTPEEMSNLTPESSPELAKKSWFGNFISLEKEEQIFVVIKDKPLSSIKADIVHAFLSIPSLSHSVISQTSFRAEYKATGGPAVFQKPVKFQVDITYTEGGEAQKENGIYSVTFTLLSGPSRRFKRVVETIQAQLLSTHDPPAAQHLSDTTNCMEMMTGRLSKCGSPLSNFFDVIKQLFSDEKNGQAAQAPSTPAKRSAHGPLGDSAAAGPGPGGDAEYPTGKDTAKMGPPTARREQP
T2 sequence (P22607 23-806 G697C): as the sequence (P22607 23-806) above, with G675C counted along it

## CC(C)c1ccc(CC(=O)N2CCN(c3ccc(C#N)nn3)CC2)cc1 [PZ-2891, 6-(4-(2-(4-isopropylphenyl)acetyl)piperazin-1-yl)pyridazine-3-carbonitrile]
BRSK2
  remaining binding at 10 µM: 81%
FGFR3(G697C)
  remaining binding at 10 µM: 99%
[1]
  PZ-2891 levels in tissues: presence of drug in liver and brain
Protein binding
  fraction unbound: 0.08
FLT3(K663Q)
  remaining binding at 10 µM: 88%
p38-alpha
  remaining binding at 10 µM: 100%
FGFR3
  remaining binding at 10 µM: 96%
FLT3(ITD)
  %Ctrl @ 10000nM: 99%
GSK3A
  remaining binding at 10 µM: 83%
RET(M918T)
  remaining binding at 10 µM: 95%
TNIK
  remaining binding at 10 µM: 91%
MARK1
  remaining binding at 10 µM: 77%
NEK4
  remaining binding at 10 µM: 95%
MYO3A
  remaining binding at 10 µM: 68%
[2]
  remaining binding at 10 µM: 100%
CSNK1G3
  remaining binding at 10 µM: 80%
ACVR1B
  remaining binding at 10 µM: 97%
Plasma stability
  half-life: > 50 h
TYRO3
  remaining binding at 10 µM: 100%
PAK7
  remaining binding at 10 µM: 73%
CAMK2A
  remaining binding at 10 µM: 98%
AKT3
  remaining binding at 10 µM: 82%
[3]
  remaining binding at 10 µM: 74%
PKAC-alpha
  remaining binding at 10 µM: 87%
VPS34
  remaining binding at 10 µM: 80%
DDR2
  remaining binding at 10 µM: 85%
PIK3CA(E542K)
  remaining binding at 10 µM: 64%
RIPK4
  remaining binding at 10 µM: 81%
PIK3CA(I800L)
  remaining binding at 10 µM: 42%
TSSK3
  remaining binding at 10 µM: 69%
IKK-alpha
  remaining binding at 10 µM: 100%
PRKD2
  remaining binding at 10 µM: 82%

Reference: PMC6199309, “A therapeutic approach to pantothenate kinase associated neurodegeneration” (Nature Communications, 2018)
